Laboratory results as given in ChEMBL document CHEMBL1201862, “PubChem BioAssay data set” (2004).
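Results reflect a 48-hour exposure of cells in 96-well plates to compound at five concentrations. The concentration for 50% growth inhibition is given as GI50.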 Calls of active or inactive are those of the source. Cut-off read from the data, not from the text of the source: active = GI50 up to about 1.1 µM and inactive = higher. Peptide text beside a SMILES is read from it. * marks the point of attachment. Boc = CC(C)(C)OC(=O)*

Legend:
Test in all cases: NCI-60 cell line screen, 48 h
BT-549 = tested on: BT-549
EKVX = tested on: EKVX
HCC 2998 = tested on: HCC 2998
HCT-15 = tested on: HCT-15
HL-60 = tested on: HL-60
HOP-62 = tested on: HOP-62
HT-29 = tested on: HT-29
Hs-578T = tested on: Hs-578T
MCF7 = tested on: MCF7
MDA-MB-435 = tested on: MDA-MB-435
MOLT-4 = tested on: MOLT-4
NCI-H460 = tested on: NCI-H460
NCI/ADR-RES = tested on: NCI/ADR-RES
SF-295 = tested on: SF-295
SNB-19 = tested on: SNB-19
SNB-75 = tested on: SNB-75
T47D = tested on: T47D
UACC-62 = tested on: UACC-62
A498 = tested on: A498

SMILES | GI50 (BT-549) | GI50 (EKVX) | GI50 (HCC 2998) | GI50 (HCT-15) | GI50 (HL-60) | GI50 (HOP-62) | GI50 (HT-29) | GI50 (Hs-578T) | GI50 (MCF7) | GI50 (MDA-MB-435) | GI50 (MOLT-4) | GI50 (NCI-H460) | GI50 (NCI/ADR-RES) | GI50 (SF-295) | GI50 (SNB-19) | GI50 (SNB-75) | GI50 (T47D) | GI50 (UACC-62) | GI50 (A498)
CC1=NC(=Cc2cc(Br)cc(Br)c2)C(=O)N1n1c(-c2ccccc2)nc2ccccc2c1=O | > 100 µM (inactive) | > 100 µM (inactive) | > 100 µM (inactive) | > 100 µM | > 100 µM (inactive) | > 100 µM (inactive) | > 100 µM (inactive) | > 100 µM (inactive) | > 100 µM (inactive) | 72.3 µM (inactive) | > 100 µM (inactive) | > 100 µM (inactive) | > 100 µM (inactive) | > 100 µM (inactive) | > 100 µM (inactive) | > 100 µM (inactive) | > 100 µM (inactive) | > 100 µM (inactive) | –
COc1ccc(/C=C2\C[C@H]3[C@@H]4CC=C5C[C@@H](O)CC[C@]5(C)[C@H]4CC[C@]3(C)\C2=N\O)cc1 | 7.69 µM (inactive) | 1.41 µM (inactive) | – | 6 µM | 3.17 µM (inactive) | 55.6 µM (inactive) | 16.1 µM (inactive) | 10 µM (inactive) | 3.62 µM (inactive) | 10.5 µM (inactive) | 5.89 µM (inactive) | 34.4 µM (inactive) | 19.4 µM (inactive) | 6.98 µM (inactive) | 25.8 µM (inactive) | – | 1.26 µM (inactive) | 17.7 µM (inactive) | 25.9 µM (inactive)
CNC(=O)C1CCCN1C(=O)C(Cc1c[nH]cn1)NC(=O)C1CCC(=O)N1 (centres undefined) | > 100 µM (inactive) | > 100 µM (inactive) | > 100 µM (inactive) | > 100 µM | > 100 µM (inactive) | > 100 µM (inactive) | > 100 µM (inactive) | > 100 µM (inactive) | > 100 µM (inactive) | > 100 µM (inactive) | > 100 µM (inactive) | > 100 µM (inactive) | > 100 µM (inactive) | > 100 µM (inactive) | > 100 µM (inactive) | > 100 µM (inactive) | > 100 µM (inactive) | > 100 µM (inactive) | –
O=C(O)c1cccc(S(=O)(=O)NN2C(=O)CSC2c2ccccc2)c1 (centres undefined) | > 100 µM (inactive) | > 100 µM (inactive) | > 100 µM (inactive) | > 100 µM | 4.4 µM (inactive) | > 100 µM (inactive) | > 100 µM (inactive) | > 100 µM (inactive) | > 100 µM (inactive) | > 100 µM (inactive) | > 100 µM (inactive) | > 100 µM (inactive) | – | > 100 µM (inactive) | > 100 µM (inactive) | > 100 µM (inactive) | > 100 µM (inactive) | > 100 µM (inactive) | > 100 µM (inactive)
O=C(/C=C/c1ccc(Cl)cc1)c1nc2ccccc2[nH]1 | 32.9 µM (inactive) | 25.7 µM (inactive) | 12.8 µM (inactive) | 17.5 µM | – | 17.6 µM (inactive) | 21.5 µM (inactive) | 72.1 µM (inactive) | 2.22 µM (inactive) | 12.2 µM (inactive) | – | 53 µM (inactive) | 42.5 µM (inactive) | 22 µM (inactive) | 34.6 µM (inactive) | 11.7 µM (inactive) | 5.78 µM (inactive) | 35.9 µM (inactive) | 37.8 µM (inactive)
CC1OC(OC2C(CO)OC(O[C@H]3CC[C@@]4(C)C(=CC[C@H]5[C@@H]6C[C@@H]7O[C@](O)(CC[C@H](C)COC8OC(CO)C(O)C(O)C8O)[C@@H](C)[C@@H]7[C@@]6(C)CC[C@@H]54)C3)C(OC3OC(C)C(O)C(O)C3O)C2O)C(O)C(O)C1O (some centres undefined) | 4.48 µM (inactive) | 17.1 µM (inactive) | – | 2.75 µM | 4.66 µM (inactive) | 2.18 µM (inactive) | 11.9 µM (inactive) | 2.63 µM (inactive) | 7.8 µM (inactive) | 2.07 µM (inactive) | 2.29 µM (inactive) | 4.81 µM (inactive) | 4.4 µM (inactive) | 4.41 µM (inactive) | 2.8 µM (inactive) | 2.16 µM (inactive) | 3.51 µM (inactive) | 5.42 µM (inactive) | 26.7 µM (inactive)
Nc1[nH]c(=S)[nH]c(=O)c1/N=N/c1c(Br)cc(S(N)(=O)=O)cc1Br | > 100 µM (inactive) | > 100 µM (inactive) | – | > 100 µM | > 100 µM (inactive) | > 100 µM (inactive) | > 100 µM (inactive) | > 100 µM (inactive) | > 100 µM (inactive) | > 100 µM (inactive) | > 100 µM (inactive) | > 100 µM (inactive) | > 100 µM (inactive) | > 100 µM (inactive) | > 100 µM (inactive) | 35.7 µM (inactive) | > 100 µM (inactive) | > 100 µM (inactive) | > 100 µM (inactive)
COC(CNC(=O)C(C)NC(=O)/C=C/c1ccccc1)OC (centres undefined) | > 100 µM (inactive) | > 100 µM (inactive) | – | > 100 µM | > 100 µM (inactive) | – | > 100 µM (inactive) | > 100 µM (inactive) | > 100 µM (inactive) | > 100 µM (inactive) | > 100 µM (inactive) | > 100 µM (inactive) | > 100 µM (inactive) | > 100 µM (inactive) | > 100 µM (inactive) | > 100 µM (inactive) | > 100 µM (inactive) | > 100 µM (inactive) | –
C[C@]12CC[C@H]3[C@@H](CC=C4C[C@@H](O)CC[C@@]43C)[C@@H]1CC[C@@H]2N(CCO)CCO | > 100 µM (inactive) | 19.4 µM (inactive) | 27 µM (inactive) | 71.4 µM | – | 51.3 µM (inactive) | 29 µM (inactive) | 45.2 µM (inactive) | 33.2 µM (inactive) | 85.9 µM (inactive) | > 100 µM (inactive) | 33.2 µM (inactive) | > 100 µM (inactive) | 57.5 µM (inactive) | 68.1 µM (inactive) | 72.8 µM (inactive) | 86.3 µM (inactive) | 35.3 µM (inactive) | 16.1 µM (inactive)
OC12CC3c4ccccc4NC3C3Oc4cccc5c4C31CCN(CC1CC1)C2C5 (centres undefined) | 16.3 µM (inactive) | 16.7 µM (inactive) | – | 17.9 µM | – | 18.5 µM (inactive) | 15.5 µM (inactive) | 23.9 µM (inactive) | 17.8 µM (inactive) | 17.9 µM (inactive) | 15.5 µM (inactive) | 17.6 µM (inactive) | 21.2 µM (inactive) | 30.9 µM (inactive) | 18.2 µM (inactive) | 15.3 µM (inactive) | 18.9 µM (inactive) | 18.4 µM (inactive) | 17.9 µM (inactive)
CSCCC(NC(=O)C(CC(C)C)NC(=O)CNC(=O)OC(C)(C)C)C(=O)N(C)C (stereo not drawn) (Boc-Gly-Leu-Met-NMe2; configuration not given here) | > 100 µM (inactive) | > 100 µM (inactive) | – | > 100 µM | > 100 µM (inactive) | – | > 100 µM (inactive) | 4 µM (inactive) | > 100 µM (inactive) | > 100 µM (inactive) | > 100 µM (inactive) | – | > 100 µM (inactive) | > 100 µM (inactive) | > 100 µM (inactive) | 0.0272 µM (active) | > 100 µM (inactive) | > 100 µM (inactive) | > 100 µM (inactive)
O=C(NN=C1CCCCC1)Nc1ccccc1Cl | 64.4 µM (inactive) | 52.8 µM (inactive) | 59.3 µM (inactive) | 39.6 µM | 29.6 µM (inactive) | – | 36.3 µM (inactive) | 32 µM (inactive) | 34.2 µM (inactive) | 16.6 µM (inactive) | 47.8 µM (inactive) | 42.5 µM (inactive) | 24.1 µM (inactive) | 33.3 µM (inactive) | 64.3 µM (inactive) | 2.82 µM (inactive) | 29.5 µM (inactive) | 36.8 µM (inactive) | –
O=C1N(c2ccccc2)C2(c3ccccc3)CC3CCCC13S2 (centres undefined) | 51.3 µM (inactive) | 71.8 µM (inactive) | – | 65.3 µM | 26.2 µM (inactive) | > 100 µM (inactive) | 42.8 µM (inactive) | 57.9 µM (inactive) | 42.1 µM (inactive) | 33.3 µM (inactive) | 24.2 µM (inactive) | – | 40.8 µM (inactive) | 86.1 µM (inactive) | > 100 µM (inactive) | – | 31.3 µM (inactive) | 77.8 µM (inactive) | 75 µM (inactive)
COC(=O)C1=CS/C(=C2\S[C@@H]3[C@H](S2)[C@H]2C=C[C@@H]3C2)S1 | > 100 µM (inactive) | – | – | 17.3 µM | 9.82 µM (inactive) | > 100 µM (inactive) | 13.1 µM (inactive) | 81.3 µM (inactive) | 10.9 µM (inactive) | 2.06 µM (inactive) | 5.19 µM (inactive) | 34.9 µM (inactive) | 9.66 µM (inactive) | 2.96 µM (inactive) | 77.1 µM (inactive) | 46.1 µM (inactive) | > 100 µM (inactive) | 12.5 µM (inactive) | 4.52 µM (inactive)
COc1ccc2nc(-c3cccc(N(C)C)c3)cc(O)c2c1 | 1.15 µM (inactive) | 1.55 µM (inactive) | 0.608 µM (active) | 0.317 µM | 0.187 µM (active) | – | 0.198 µM (active) | 0.188 µM (active) | 0.413 µM (active) | 0.0726 µM (active) | 0.344 µM (active) | 0.348 µM (active) | 0.185 µM (active) | 0.246 µM (active) | 0.451 µM (active) | 0.299 µM (active) | > 10 µM (inactive) | 0.252 µM (active) | –
CC(C)(C)NCC(O)COc1cccc2[nH]c(C#N)cc12 (centres undefined) [CYANOPINDOLOL] | > 100 µM (inactive) | > 100 µM (inactive) | – | > 100 µM | > 100 µM (inactive) | > 100 µM (inactive) | > 100 µM (inactive) | > 100 µM (inactive) | > 100 µM (inactive) | > 100 µM (inactive) | > 100 µM (inactive) | – | > 100 µM (inactive) | > 100 µM (inactive) | > 100 µM (inactive) | – | > 100 µM (inactive) | > 100 µM (inactive) | 68.1 µM (inactive)
